From patent US7109338B2, “1,2-disubstituted 1,4-dihydro-4-oxoquinoline compounds” (priority 1999, dated 2006)
Values after ≈ are worked out from the molar mass of the structure shown.

What was measured:
[1] = system: HeLa-S3 cells; assay: Cytotoxicity (MTT, without virus), HeLa-S3; conditions: HeLa-S3, no virus, incubated for 4 days
[2] = system: HeLa cells; assay: Cytotoxicity (MTT, without virus), HeLa; conditions: HeLa, no virus, incubated for 4 days
[3] = system: HRV 89 (41617-Gallo); assay: Anti-rhinovirus activity (MTT), HRV89; assay type: cell-based, human rhinovirus; set-up: Anti-Rhinovirus activity, HRV89: unit not given here; conditions: for IC50 HRV89: HeLa (Ohio strain) cells, MTT method, 33° C.
[4] = system: HRV61 (6669-CV39); assay: Anti-rhinovirus spectrum (MTT), HRV61; assay type: cell-based, human rhinovirus; set-up: Anti-Rhinovirus activity, HRV61: unit not given here; conditions: HRV61
[5] = system: HRV29 (5582); assay: Anti-rhinovirus spectrum (MTT), HRV29; assay type: cell-based, human rhinovirus; set-up: Anti-Rhinovirus activity, HRV29: unit not given here; conditions: HRV29
[6] = system: HRV10 (204-CV14); assay: Anti-rhinovirus spectrum (MTT), HRV10; assay type: cell-based, human rhinovirus; set-up: Anti-Rhinovirus activity, HRV10: unit not given here; conditions: HRV10
[7] = system: HRV 2 (HGP); assay: Anti-rhinovirus activity (MTT), HRV2; assay type: cell-based, human rhinovirus; set-up: Anti-Rhinovirus activity, HRV2: unit not given here; conditions: for IC50 HRV2: HeLa (Ohio strain) cells, MTT method, 33° C.
[8] = system: HRV31 (41F); assay: Anti-rhinovirus spectrum (MTT), HRV31; assay type: cell-based, human rhinovirus; set-up: Anti-Rhinovirus activity, HRV31: unit not given here; conditions: HRV31
[9] = system: coxsackievirus type B4 (CB4,JVB); assay: In vitro anti-picornavirus activity (MTT), CB4; assay type: cell-based; conditions: HeLa cells, MTT method, 37° C.
[10] = system: HRV5; assay: Anti-rhinovirus spectrum (MTT), HRV5; assay type: cell-based, human rhinovirus; set-up: Anti-Rhinovirus activity, HRV5: unit not given here; conditions: HRV5
[11] = system: HeLa (Ohio strain)cells; assay: Cytotoxicity (MTT, without virus), HeLa(Ohio); conditions: HeLa(Ohio), no virus, incubated for 4 days
[12] = system: HRV39 (209); assay: Anti-rhinovirus spectrum (MTT), HRV39; assay type: cell-based, human rhinovirus; set-up: Anti-Rhinovirus activity, HRV39: unit not given here; conditions: HRV39
[13] = system: HRV3(FEB); assay: Anti-rhinovirus spectrum (MTT), HRV3; assay type: cell-based, human rhinovirus; set-up: Anti-Rhinovirus activity, HRV3: unit not given here; conditions: HRV3
[14] = system: HRV41 (56110); assay: Anti-rhinovirus spectrum (MTT), HRV41; assay type: cell-based, human rhinovirus; set-up: Anti-Rhinovirus activity, HRV41: unit not given here; conditions: HRV41
[15] = system: Poliovirus type 1 (Polio 1, Sabin); assay: microbe, parasite or virus in culture; assay type: cell-based
[16] = system: HRV8(MRH); assay: Anti-rhinovirus spectrum (MTT), HRV8; assay type: cell-based, human rhinovirus; set-up: Anti-Rhinovirus activity, HRV8: unit not given here; conditions: HRV8
[17] = system: human rhinovirus type 1B (HRV 1B, B632); assay: Anti-rhinovirus activity (MTT), HRV1B; assay type: cell-based; set-up: Anti-Rhinovirus activity, HRV1B: unit not given here; conditions: for IC50 HRV1B: HeLa (Ohio strain) cells, MTT method, 33° C.
[18] = system: HRV33 (1200); assay: Anti-rhinovirus spectrum (MTT), HRV33; assay type: cell-based, human rhinovirus; set-up: Anti-Rhinovirus activity, HRV33: unit not given here; conditions: HRV33
[19] = system: HRV21 (47); assay: Anti-rhinovirus spectrum (MTT), HRV21; assay type: cell-based, human rhinovirus; set-up: Anti-Rhinovirus activity, HRV21: unit not given here; conditions: HRV21
[20] = system: HRV14 (1059); assay: Anti-rhinovirus activity (MTT), HRV14; assay type: cell-based, human rhinovirus; set-up: Anti-Rhinovirus activity, HRV14: unit not given here; conditions: for IC50 HRV 14: HeLa (Ohio strain) cells, MTT method, 33° C.
[21] = system: HRV13 (353); assay: Anti-rhinovirus spectrum (MTT), HRV13; assay type: cell-based, human rhinovirus; set-up: Anti-Rhinovirus activity, HRV13: unit not given here; conditions: HRV13
[22] = system: coxsackievirus type A7 (CA7); assay: In vitro anti-picornavirus activity (MTT), CA7; assay type: cell-based; conditions: HeLa-S3 cells, MTT method, 37° C.
[23] = system: HRV36 (342H); assay: Anti-rhinovirus spectrum (MTT), HRV36; assay type: cell-based, human rhinovirus; set-up: Anti-Rhinovirus activity, HRV36: unit not given here; conditions: HRV36
[24] = system: HRV1A (E28); assay: Anti-rhinovirus activity (MTT), HRV1A; assay type: cell-based, human rhinovirus; set-up: Anti-Rhinovirus activity, HRV1A: unit not given here; conditions: for IC50 HRV 1A: HeLa (Ohio strain) cells, MTT method, 33° C.
[25] = system: clinical isolate (89229T); assay: microbe, parasite or virus in culture; assay type: cell-based, human rhinovirus; set-up: Anti-Rhinovirus activity, Clinical isolated strain: unit not given here; conditions: Clinical isolated strain
[26] = system: HRV32 (363); assay: Anti-rhinovirus spectrum (MTT), HRV32; assay type: cell-based, human rhinovirus; set-up: Anti-Rhinovirus activity, HRV32: unit not given here; conditions: HRV32
[27] = system: HRV50(A2#58); assay: Anti-rhinovirus spectrum (MTT), HRV50; assay type: cell-based, human rhinovirus; set-up: Anti-Rhinovirus activity, HRV50: unit not given here; conditions: HRV50
[28] = system: echovirus type 11 (Echo 11, Gregory); assay: In vitro anti-picornavirus activity (MTT), Echo 11; assay type: cell-based; conditions: HeLa-S3 cells, MTT method, 37° C.
[29] = system: HRV16 (11757); assay: Anti-rhinovirus spectrum (MTT), HRV16; assay type: cell-based, human rhinovirus; set-up: Anti-Rhinovirus activity, HRV16: unit not given here; conditions: HRV16

| SMILES | Cytotoxicity CC50 HeLa-S3 [1] [µg/mL] | Cytotoxicity CC50 HeLa [2] [µg/mL] | Anti-Rhinovirus activity, HRV89 [3] | IC50 HRV89 [3] [µg/mL] | Anti-Rhinovirus activity, HRV61 [4] | Anti-Rhinovirus activity, HRV29 [5] | Anti-Rhinovirus activity, HRV10 [6] | Anti-Rhinovirus activity, HRV2 [7] | IC50 HRV2 [7] [µg/mL] | Anti-Rhinovirus activity, HRV31 [8] | IC50 CB4 [9] [µg/mL] | Anti-Rhinovirus activity, HRV5 [10] | Cytotoxicity CC50 HeLa(Ohio) [11] [µg/mL] | Anti-Rhinovirus activity, HRV39 [12] | Anti-Rhinovirus activity, HRV3 [13] | Anti-Rhinovirus activity, HRV41 [14] | IC50 Polio 1 [15] [µg/mL] | Anti-Rhinovirus activity, HRV8 [16] | Anti-Rhinovirus activity, HRV1B [17] | IC50 HRV1B [17] [µg/mL] | also measured |
| --- | --- | --- | --- | --- | --- | --- | --- | --- | --- | --- | --- | --- | --- | --- | --- | --- | --- | --- | --- | --- | --- |
| CCn1c2c(c(=O)c3cc(CC(C)C)ccc31)Cc1cc(OC)ccc1-2 [Compound B15] | >2.5 | >2.5 | 0.39 | 0.39 (≈ 1.12 µM) | 0.39 | 0.67 | 1.1 | 0.44 | 0.44 (≈ 1.27 µM) | 0.38 | 1.9 (≈ 5.47 µM) | 0.39 | >2.5 | 0.46 | 1.1 | 0.18 | 0.49 (≈ 1.41 µM) | 0.38 | 0.36 | 0.36 (≈ 1.04 µM) | Anti-Rhinovirus activity, HRV33 [18]: 0.29; Anti-Rhinovirus activity, HRV21 [19]: 0.34; Anti-Rhinovirus activity, HRV14 [20]: 0.84; IC50 HRV 14 [20]: 0.84 µg/mL (≈ 2.42 µM); Anti-Rhinovirus activity, HRV13 [21]: 0.18; IC50 CA7 [22]: 2.2 µg/mL (≈ 6.33 µM); Anti-Rhinovirus activity, HRV36 [23]: 0.32; Anti-Rhinovirus activity, HRV1A [24]: >2.5; IC50 HRV 1A [24]: >2.5 µg/mL; Anti-Rhinovirus activity, Clinical isolated strain [25]: 1.1; Anti-Rhinovirus activity, HRV32 [26]: 0.65; Anti-Rhinovirus activity, HRV50 [27]: 0.28; IC50 Echo 11 [28]: 0.27 µg/mL (≈ 0.777 µM); Anti-Rhinovirus activity, HRV16 [29]: 1.2 |
| CCn1c2c(c(=O)c3cc(CC(C)C)ccc31)Cc1cc(OC)ccc1-2 [Compound B12] | >2.5 | >2.5 | 0.31 | 0.31 (≈ 0.892 µM) | 0.31 | 0.44 | 0.43 | 0.31 | 0.31 (≈ 0.892 µM) | 0.11 | 0.63 (≈ 1.81 µM) | 0.29 | >2.5 | 0.38 | 0.52 | 0.11 | 0.39 (≈ 1.12 µM) | 0.32 | 0.25 | 0.25 (≈ 0.72 µM) | Anti-Rhinovirus activity, HRV33 [18]: 0.12; Anti-Rhinovirus activity, HRV21 [19]: 0.17; Anti-Rhinovirus activity, HRV14 [20]: 0.43; IC50 HRV 14 [20]: 0.43 µg/mL (≈ 1.24 µM); Anti-Rhinovirus activity, HRV13 [21]: 0.091; IC50 CA7 [22]: 2.0 µg/mL (≈ 5.76 µM); Anti-Rhinovirus activity, HRV36 [23]: 0.21; Anti-Rhinovirus activity, HRV1A [24]: >2.5; IC50 HRV 1A [24]: >2.5 µg/mL; Anti-Rhinovirus activity, Clinical isolated strain [25]: 0.46; Anti-Rhinovirus activity, HRV32 [26]: 0.33; Anti-Rhinovirus activity, HRV50 [27]: 0.12; IC50 Echo 11 [28]: 0.19 µg/mL (≈ 0.547 µM); Anti-Rhinovirus activity, HRV16 [29]: 1.4 |
